Key:
MMP-9 = MMP-9 (Homo sapiens, UniProt P14780); experiment: K(obs) of individual phage substrates (set of 1369); assay type: biochemical; conditions: MMP9
MMP-2 [1] = biological target: T1, MMP-2 (Homo sapiens, UniProt P08253); experiment: as above; assay type: biochemical; conditions: MMP2
T1 sequence (P08253 110-660): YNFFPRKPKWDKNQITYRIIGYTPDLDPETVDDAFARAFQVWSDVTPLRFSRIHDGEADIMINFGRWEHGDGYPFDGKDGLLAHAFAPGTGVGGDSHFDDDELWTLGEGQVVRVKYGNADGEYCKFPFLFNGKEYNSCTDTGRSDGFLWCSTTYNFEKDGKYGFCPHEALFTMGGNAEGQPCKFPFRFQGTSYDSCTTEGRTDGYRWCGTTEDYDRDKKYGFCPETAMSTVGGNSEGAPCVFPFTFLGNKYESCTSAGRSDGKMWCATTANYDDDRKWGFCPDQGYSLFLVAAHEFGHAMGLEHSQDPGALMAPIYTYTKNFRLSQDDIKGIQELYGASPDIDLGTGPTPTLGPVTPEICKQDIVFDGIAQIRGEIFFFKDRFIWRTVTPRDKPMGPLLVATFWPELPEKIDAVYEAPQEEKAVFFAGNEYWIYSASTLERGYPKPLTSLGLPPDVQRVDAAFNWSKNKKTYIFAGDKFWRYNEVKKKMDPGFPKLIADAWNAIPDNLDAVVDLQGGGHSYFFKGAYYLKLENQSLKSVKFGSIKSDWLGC

MMP-2 [2] = experiment: Substrate phage display with NGS: relative probability (RP) of P3-P1' tetramer clusters; assay type: biochemical, human; conditions: MMP2;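 note: ratio of tetramer probability after protease selection to that in naive phage library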
[3] = individual phage substrates, set of 1369 peptides, hyphen in sequence marks cleavage position
[4] = individual phage substrates, set of 1369 peptides, cleavage position marked by hyphen in sequence
[5] = RP of the P3-P1' tetramer contained in the substrate (substrate phage display with NGS)
[6] = individual phage substrate of the set of 1369 peptides, dash in the sequence marks the cleavage position
[7] = individual phage substrate of the set of 1369 peptides, cleavage position marked by '-'
[8] = RP of the P3-P1' tetramer contained in the substrate
[9] = individual phage substrates, set of 1369 peptides, dash in sequence marks cleavage position
[10] = individual phage substrate from the set of 1369 peptides, cleavage position marked by the dash in the sequence
[11] = individual phage substrates, set of 1369 peptides, '-' marks the cleavage position (P1-P1')
[12] = individual phage substrates, set of 1369 peptides, cleavage position marked by '-' in the sequence

MMP-9, sequence (P14780 94-707): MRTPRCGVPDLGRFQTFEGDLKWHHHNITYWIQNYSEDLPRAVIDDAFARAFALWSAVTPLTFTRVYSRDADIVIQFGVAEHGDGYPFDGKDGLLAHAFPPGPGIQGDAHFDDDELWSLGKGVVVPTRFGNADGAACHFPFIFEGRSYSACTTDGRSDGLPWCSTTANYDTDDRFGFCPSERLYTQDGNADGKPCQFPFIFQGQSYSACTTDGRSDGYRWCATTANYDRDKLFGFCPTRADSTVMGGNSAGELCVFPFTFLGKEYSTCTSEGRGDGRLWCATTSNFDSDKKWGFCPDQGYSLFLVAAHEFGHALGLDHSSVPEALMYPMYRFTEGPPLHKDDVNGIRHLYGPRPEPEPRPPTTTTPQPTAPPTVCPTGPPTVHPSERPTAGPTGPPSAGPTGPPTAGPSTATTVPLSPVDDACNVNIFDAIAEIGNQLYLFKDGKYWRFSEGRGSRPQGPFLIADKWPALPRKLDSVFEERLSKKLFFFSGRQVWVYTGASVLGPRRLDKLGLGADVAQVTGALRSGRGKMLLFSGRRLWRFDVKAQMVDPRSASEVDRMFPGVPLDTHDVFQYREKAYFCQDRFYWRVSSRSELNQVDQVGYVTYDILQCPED

Substance | Kobs (MMP-9; [9]) [M⁻¹ s⁻¹] | Kobs (MMP-2 [1]; [10]) [M⁻¹ s⁻¹] | Kobs (MMP-9; [11]) [M⁻¹ s⁻¹] | Kobs (MMP-2 [1]; [12]) [M⁻¹ s⁻¹] | also measured
GIPFF-MTTAS | – | – | – | – | Kobs (MMP-9; [3]): 3079.62 M⁻¹ s⁻¹; Kobs (MMP-2 [1]; [4]): 0 M⁻¹ s⁻¹; relative probability (RP) (MMP-2 [2]; [5]): 3.509
SGVLG-LIGTA | – | – | – | – | Kobs (MMP-9; [3]): 12792.1 M⁻¹ s⁻¹; Kobs (MMP-2 [1]; [4]): 12792.1 M⁻¹ s⁻¹; relative probability (RP) (MMP-2 [2]; [5]): 24.4128
GGSGS-LVLRL | – | – | – | – | Kobs (MMP-9; [3]): 1030.73 M⁻¹ s⁻¹; Kobs (MMP-2 [1]; [4]): 1196.62 M⁻¹ s⁻¹; relative probability (RP) (MMP-2 [2]; [5]): 7.225
HRLLS-LTASG | – | – | – | – | Kobs (MMP-9; [6]): 912.511 M⁻¹ s⁻¹; Kobs (MMP-2 [1]; [7]): 6688.74 M⁻¹ s⁻¹; relative probability (RP) (MMP-2 [2]; [8]): 2.018
SGPRP-LLATA | – | – | – | – | Kobs (MMP-9; [6]): 12792.1 M⁻¹ s⁻¹; Kobs (MMP-2 [1]; [7]): 12792.1 M⁻¹ s⁻¹; relative probability (RP) (MMP-2 [2]; [8]): 34.3303
GVVLN-LETAS | – | – | – | – | Kobs (MMP-9; [6]): 1465.65 M⁻¹ s⁻¹; Kobs (MMP-2 [1]; [7]): 1196.62 M⁻¹ s⁻¹; relative probability (RP) (MMP-2 [2]; [8]): 18.9065
GRARW-LMTAS | – | – | – | – | Kobs (MMP-9; [6]): 3079.62 M⁻¹ s⁻¹; Kobs (MMP-2 [1]; [7]): 1561.44 M⁻¹ s⁻¹; relative probability (RP) (MMP-2 [2]; [8]): 19.0362
VKVWG-LTASG | 8321.48 | 5461.43 | – | – | –
VPPMP-LTASG | – | – | 12792.1 | 12792.1 | –
SLPAH-ITASG | 5461.43 | 12792.1 | – | – | –
GGSGA-LIAND | – | – | 0 | 874.197 | –
VYSAY-LTASG | 142.481 | 8941.32 | – | – | –
EPIYN-LTASG | – | – | 2761.81 | 619.843 | –
VFYQS-LTASG | – | – | 0 | 12792.1 | –
GVINQ-LRTAS | 355.093 | 517.582 | – | – | –
GLAYS-LQTAS | 2476.66 | 1561.44 | – | – | –
GSGWR-LTVGT | 27.918 | 0 | – | – | –
GRHQS-LRTAS | – | – | 0 | 836.403 | –
GSGMR-LVLRT | – | – | 0 | 0 | –
YFPLD-MTASG | 7815.03 | 3637.04 | – | – | –
GEIAS-LSTAS | 84.609 | 7386.83 | – | – | –
SGPQA-VVKTA | 517.582 | 1071.29 | – | – | –
SGVMR-LVVTA | 171.876 | 0 | – | – | –
GFHRS-IRTAS | 0 | 292.668 | – | – | –

Substance | Kobs (MMP-9; [9]) [M⁻¹ s⁻¹] | Kobs (MMP-2 [1]; [10]) [M⁻¹ s⁻¹] | Kobs (MMP-9; [11]) [M⁻¹ s⁻¹] | Kobs (MMP-2 [1]; [12]) [M⁻¹ s⁻¹] | also measured
STVRN-LTASG | – | – | 4470.66 | 12792.1 | –
VTVIA-LTASG | – | – | 951.362 | 1711.63 | –
SGPVS-LRMTA | 12792.1 | 12792.1 | – | – | –
RWPAW-LTASG | 8941.32 | 9740.44 | – | – | –
PGIAN-LTASG | – | – | 2218.08 | 7815.03 | –
GHPWL-QRTAS | – | – | 56.119 | 0 | –
SGVGA-LNKTA | 56.119 | 836.403 | – | – | –
HLFQW-LTASG | 0 | 7015.91 | – | – | –
GTVRH-LSTAS | – | – | 1925.41 | 6396.07 | –
ARAQH-ITASG | 912.511 | 912.511 | – | – | –
GRASA-LNTAS | – | – | 0 | 517.582 | –
SGPLS-ILNTA | – | – | 12792.1 | 8941.32 | –
AVTYA-LTASG | – | – | 2837.92 | 1071.29 | –
GVPQW-IHTAS | – | – | 5889.62 | 4335.13 | –
SGLGM-LATTA | – | – | 84.609 | 418.952 | –
SGPWG-LLETA | – | – | 12792.1 | 2409.72 | –
RVPRG-LTASG | – | – | 12792.1 | 12792.1 | –
RGVWK-LTASG | 1071.29 | 0 | – | – | –
VEAHA-LTASG | 2837.92 | 7015.91 | – | – | –
FMYSH-LTASG | 0 | 7815.03 | – | – | –
GSGMA-LTHIT | 84.609 | 84.609 | – | – | –
SGSAR-LTLTA | 0 | 0 | – | – | –
GYGLH-LRTAS | – | – | 261.974 | 201.585 | –

Reference: publication PMC7932537, “Quantitative profiling of protease specificity” (PLoS Computational Biology, 2021)
